Where a name gives a salt, the structure may show the parent alone.
What follows are compounds tested against T1, γ-Secretase (Homo sapiens, UniProt P49768) (assay: Inhibition of γ-secretase: ELISA of β-AP made by transfected H4 cells in culture). Conditions: H4 (human neuroglioma) cells expressing β-APP (Swedish variant typically), approximately 16 hours incubation, β-AP in conditioned medium by ELISA.
T1 construct: transfected H4 (human neuroglioma) cells stably expressing constructs containing wild-type and mutant forms of β-APP; endogenous in cells; host or cells: H4 human neuroglioma cells, stably transfected with beta-APP (the substrate, not the enzyme)
Type: cell-based
Description: Production and detection of β-AP made by cells in culture. The use of transfected H4 (human neuroglioma) cells stably expressing constructs containing wild-type and mutant forms of β-APP have been used to identify inhibitors of β-AP production. The Swedish variant of β-APP produces 5-7 fold more β-AP than the wild type and is typically used due to its enhanced signal. […] The capture antibody is typically a mouse monoclonal (IgG1/kβ-APPa). The antibody recognizes the carboxyl terminal epitope of β-AP. The specificity of the capture antibody ensures measurement of β-AP without interference by other secreted β-APP fragments that share amino acid sequence (β-AP1-16) with β-AP. The detecting antibody is typically an affinity purified rabbit polyclonal antibody, specific for the amino terminus of β-AP. In the cell-based assay conditioned medium from H4 cells is tested by ELISA for the quantity of β-AP present. The cell-based assay can be used to identify compounds that inhibit β-AP production. The assay should detect agents that inhibit cleavage at the β-secretase and/or the γ-secretase cleavage site as well as detecting any agent that interferes with the production and/or release of β-AP.
A typical ELISA-based assay requires plating of the transfected cells at a density sufficient for the rapid detection of the secreted β-AP (experimentally predetermined for a particular stable cell population) in a 96-well format. Cells are plated for at least six hours prior to the introduction of the test compound at which time the growth medium is replaced by fresh medium containing the agent to be tested. Test agents may typically consist of synthetic compounds, secondary metabolites from bacterial or fungal fermentation extracts, or extracts from plant or marine samples. All synthetic agents are initially screened at doses ranging from 10-100 μM or in the case of extracts at sufficient dilution to minimize cytotoxicity. Incubation of the cells with the test agent will continue for approximately 16 hours at which time equal aliquots of media from each sample well is removed and placed into a previously prepared ELISA plate for β-AP quantitation. The ELISA is carried out in a manner described by others (Haass, et al., 1992; Hawlow and Lane, 1988) and the β-AP signal quantitated. Results are obtained by analysis of the ELISA plate following development and comparison to the mock treated cell populations and samples in which known amounts of β-AP were added to construct a standard concentration curve. […] If a compound is found to be active, then a dose response experiment is performed to determine the lowest dose of compound necessary to elicit the inhibition of the production of β-AP.

Activity Rating (Inhibition of γ-Secretase)	SMILES
+++ (+++ < = 10)	CCCCNC(=O)[C@H](C)C[C@H](O)[C@H](CC1CCCCC1)NCCCC(C)C (relative stereo) [Example 19, [αS-(αR*,γR*,δR*)]N-Butyl-γ-hydroxy-α-methyl-δ-[(4-methylpentyl)amino]cyclohexanehexanamide hydrochloride]
+++ (+++ < = 10)	CCCCNC(=O)[C@@H](C[C@H](O)[C@H](CC1CCCCC1)NCCCC(C)C)C(C)C (relative stereo) [Example 20, [αS-(αR*,γR*,δR*)]N-Butyl-γ-hydroxy-α-(1-methylethyl)-δ-[(4-methylpentyl)amino]cyclohexanehexanamide hydrochloride]
+++ (+++ < = 10)	C=C(C)C[C@H](C[C@H](O)[C@H](CC1CCCCC1)NCCCC(C)C)C(=O)NCCCC (relative stereo) [Example 21, [αS-(αR*,γR*,δR*)]N-Butyl-γ-hydroxy-α-(2-methyl-2-propenyl)-δ-[(4-methylpentyl)amino]cyclohexanehexanamide hydrochloride]
+++ (+++ < = 10)	CCCCNC(=O)[C@H](CC(C)C)C[C@H](O)[C@H](CC1CCCCC1)NCCCC(C)C (relative stereo) [Example 22, [αS-(αR*,γR*,δR*)]N-Butyl-γ-hydroxy-δ-[(4-methylpentyl)amino]-α-(2-methylpropyl)cyclohexanehexanamide hydrochloride]
+++ (+++ < = 10)	CCCCNC(=O)[C@H](CC1CCCCC1)C[C@H](O)[C@H](CC1CCCCC1)NCCCC(C)C (relative stereo) [Example 26, [αS-(αR*,γR*,δR*)]-N-Butyl-α-(cyclohexylmethyl)-γ-hydroxy-δ-[(4-methylpentyl)amino]cyclohexanehexanamide, hydrochloride]
+++ (+++ < = 10)	CC(C)CCCN[C@@H](CC1CCCCC1)[C@@H](O)C[C@H](C(=O)N[C@H](C)c1ccccc1)C(C)C (relative stereo) [Example 28, [αS-(αR*,γR*,δR*,N-(1S*))]γ-hydroxy-α-(1-methylethyl)-δ-[(4-methylpentyl)amino]-N-(1-phenylethyl)cyclohexanehexanamide hydrochloride]
+++ (+++ < = 10)	CC(C)CCCN[C@@H](CC1CCCCC1)[C@@H](O)C[C@H](C(=O)NCCc1ccccc1)C(C)C (relative stereo) [Example 29, [αS-(αR*,γR*,δR*)]γ-hydroxy-α-(1-methylethyl)-δ-[(4-methylpentyl)amino]-N-(2-phenylethyl)cyclohexanehexanamide hydrochloride]
++ (++ > 10 & < = 25)	CCCCNC(=O)[C@@H](C[C@H](O)[C@H](CC1CCCCC1)NCc1cccc(OC)c1)C(C)C (relative stereo) [Example 37, [αS-(αR*,γR*,δR*)]N-Butyl-γ-hydroxy-δ-[[(3-methoxyphenyl)methyl]amino]-α-(1-methylethyl)cyclohexanehexanamide hydrochloride]
+ (+ > 25 & < = 50 μM)	CCCCNC(=O)[C@@H](C[C@H](O)[C@H](CC1CCCCC1)NCCOC(C)C)C(C)C (relative stereo) [Example 39, [αS-(αR*,γR*,δR*)]N-Butyl-γ-hydroxy-δ-[2-(1-methylethoxy)ethyl]amino]-α-(1-methylethyl)cyclohexanehexanamidehydrochloride]

More lines, now with the values behind:

SMILES	Activity Rating (Inhibition of γ-Secretase)
C=CC[C@H](C[C@H](O)[C@H](CC1CCCCC1)NCCCC(C)C)C(=O)NCCCC (relative stereo) [Example 23, [αS-(αR*,γR*,δR*)]N-Butyl-γ-hydroxy-δ-[(4-methylpentyl)amino]-α-(2-propenyl)cyclohexanehexanamide hydrochloride]	+++ (+++ < = 10)
CCCCNC(=O)[C@H](Cc1ccccc1)C[C@H](O)[C@H](CC1CCCCC1)NCCCC(C)C (relative stereo) [Example 25, [αS-(αR*,γR*,δR*)]N-Butyl-γ-hydroxy-δ-[(4-methylpentyl)amino]-α-(phenylmethyl)cyclohexanehexanamide hydrochloride]	+++ (+++ < = 10)
CC(C)CCCN[C@@H](CC1CCCCC1)[C@@H](O)C[C@H](C(=O)NCC(C)C)C(C)C (relative stereo) [Example 30, [αS-(αR*,γR*,δR*)]γ-hydroxy-α-(1-methylethyl)-δ-[(4-methylpentyl)amino]-N-(2-methylpropyl)cyclohexanehexanamide hydrochloride]	+++ (+++ < = 10)
CC(C)CCCN[C@@H](CC1CCCCC1)[C@@H](O)C[C@H](C(=O)NCC(C)(C)C)C(C)C (relative stereo) [Example 31, [αS-(αR*,γR*,δR*)]N-(2,2-dimethylpropyl)-γ-hydroxy-α-(1-methylethyl)-δ-[(4-methylpentyl)amino]cyclohexanehexanamide hydrochloride]	+++ (+++ < = 10)
CSCCCNC(=O)[C@@H](C[C@H](O)[C@H](CC1CCCCC1)NCCCC(C)C)C(C)C (relative stereo) [Example 32, [αS-(αR*,γR*,δR*)]γ-hydroxy-α-(1-methylethyl)-δ-[(4-methylpentyl)amino]-N-[3-(methylthio)propyl]cyclohexanehexanamide hydrochloride]	+++ (+++ < = 10)
CCCCNC(=O)[C@@H](C[C@H](O)[C@H](CC1CCCCC1)NCCC(C)CC)C(C)C (relative stereo) [Example 33, [αS-(αR*,γR*,δR*)]N-Butyl-γ-hydroxy-α-(1-methylethyl)-δ-[(3-methylpentyl)amino]cyclohexanehexanamide hydrochloride]	+++ (+++ < = 10)
CCCCNC(=O)[C@@H](C[C@H](O)[C@H](CC1CCCCC1)NCCCCC(C)C)C(C)C (relative stereo) [Example 34, [αS-(αR*,γR*,δR*)]N-Butyl-γ-hydroxy-α-(1-methylethyl)-δ-[(5-methylhexyl)amino]cyclohexanehexanamide hydrochloride]	+++ (+++ < = 10)
CCCCNC(=O)[C@@H](C[C@H](O)[C@H](CC1CCCCC1)NCCC(C)C)C(C)C (relative stereo) [Example 35, [αS-(αR*,γR*,δR*)]N-Butyl-γ-hydroxy-δ-[(3-methylbutyl)amino]-α-(1-methylethyl)cyclohexanehexanamide hydrochloride]	+++ (+++ < = 10)
CCCCNC(=O)[C@@H](C[C@H](O)[C@H](CC1CCCCC1)NCc1cccc(C)c1)C(C)C (relative stereo) [Example 36, [αS-(αR*,γR*,δR*)]N-Butyl-γ-hydroxy-α-(1-methylethyl)-δ-[[(3-methylphenyl)methyl]amino]cyclohexanehexanamidehydrochloride]	+++ (+++ < = 10)
CCCCNC(=O)[C@@H](C[C@H](O)[C@H](CC1CCCCC1)NCc1ccc2ccccc2c1)C(C)C (relative stereo) [Example 38, [αS-(αR*,γR*,δR*)]N-Butyl-γ-hydroxy-α-(1-methylethyl)-δ-[[(2-naphthyl)methyl]amino]cyclohexanehexanamide hydrochloride]	+ (+ > 25 & < = 50 μM)

Reference: patent US5703129A, “5-amino-6-cyclohexyl-4-hydroxy-hexanamide derivatives as inhibitors of β-amyloid protein production” (Bristol-Myers Squibb Company, priority 1996, dated 1997)
